Reference: US20230131402A1, “SPIRO-LACTAM NMDA RECEPTOR MODULATORS AND USES THEREOF” (Aptinyx Inc., priority 2016, published 2023)
Like-named read-outs stand apart in the source and are kept apart here.

Key:
[1] = biological target: T1, NMDAR2D (Homo sapiens, UniProt O15399); test: [3H]MK-801 binding, NMDAR2D expressing HEK cell membranes; assay type: biochemical; settings: 50 μM glutamate; for EC50: read-out: NMDAR2D B: log EC50 (converted)
T1 construct: expressed in transfected cells; host or cells: HEK cells (membrane extract)
Description: (§1) Assays were conducted as described by Moskal et al., “GLYX-13: a monoclonal antibody-derived peptide that acts as an N-methyl-D-aspartate receptor modulator,” Neuropharmacology, 49, 1077-87, 2005. These studies were designed to determine if the test compounds act to facilitate NMDAR activation in NMDAR2A, NMDAR2B, NMDAR2C or NMDAR2D expressing HEK cell membranes as measured by increases in [^3H]MK-801 binding.
(§2) In the assay, 300 μg of NMDAR expressing HEK cell membrane extract protein was preincubated for 15 minutes at 25° C. in the presence of saturating concentrations of glutamate (50 μM) and varying concentrations of test compound (1×10^−15M−1×10^−7M), or 1 mM glycine. Following the addition of 0.3 μCi of [^3H]MK-801 (22.5 Ci/mmol), reactions were again incubated for 15 minutes at 25° C. (nonequilibrium conditions). Bound and free [^3H]MK-801 were separated via rapid filtration using a Brandel apparatus.
(§3) In analyzing the data, the DPM (disintegrations per minute) of [^3H]MK-801 remaining on the filter were measured for each concentration of test compound or for 1 mM glycine. The DPM values for each concentration of a ligand (N=2) were averaged. The baseline value was determined from the best fit curve of the DPM values modeled using the GraphPad program and the log(agonist) vs. response(three parameters) algorithm was then subtracted from all points in the dataset. The % maximal [^3H]MK-801 binding was then calculated relative to that of 1 mM glycine: all baseline subtracted DPM values were divided by the average value for 1 mM glycine. The EC50 and % maximal activity were then obtained from the best fit curve of the % maximal [^3H]MK-801 binding data modelled using the GraphPad program and the log(agonist) vs. response(three parameters) algorithm.
(§4) The tables below summarize the results for the wild type NMDAR agonists NMDAR2A, NMDAR2B, NMDAR2C, and NMDAR2D, and whether the compound is not an agonist (−), is an agonist (+), or is a strong agonist (++), where column A is based on the % maximal [^3H]MK-801 binding relative to 1 mM glycine (−=0; <100%=+; and >100%=++); and column B is based on log EC50 values (0=−; ≥1×10^−9M (e.g., −8)=+; and <1×10^−9M (e.g., −10)=++).

[2] = biological target: T2, NMDAR2A (Homo sapiens, UniProt Q12879); test: [3H]MK-801 binding, NMDAR2A expressing HEK cell membranes; assay type: biochemical; settings: 50 μM glutamate; for Emax: read-out: NMDAR2A A: % maximal [3H]MK-801 binding relative to 1 mM glycine; for EC50: read-out: NMDAR2A B: log EC50 (converted)
T2 construct: expressed in transfected cells; host or cells: HEK cells (membrane extract)
Description: as §1, §2, §3, §4

[3] = IV pharmacokinetics; assay type: in vivo, Sprague Dawley rats; settings: rat, 2 mg/kg, normal saline (compounds marked * in 1% NMP and 99% normal saline); for Vd: read-out: Vss
Source text: The table below summarizes the results of the IV pharmacokinetics.

[4] = Oral pharmacokinetics (plasma, brain, CSF); settings: rat, per os, 10 mg/kg
Description: Plasma, brain, and CSF samples were analyzed at various time points over a 24 hour period.

[5] = biological target: T3, NMDAR2C (Homo sapiens, UniProt Q14957); test: [3H]MK-801 binding, NMDAR2C expressing HEK cell membranes; assay type: biochemical; settings: 50 μM glutamate; for EC50: read-out: NMDAR2C B: log EC50 (converted)
T3 construct: expressed in transfected cells; host or cells: HEK cells (membrane extract)
Description: as §1, §2, §3, §4

[6] = biological target: T4, NMDAR2B (Homo sapiens, UniProt Q13224); test: [3H]MK-801 binding, NMDAR2B expressing HEK cell membranes; assay type: biochemical; settings: 50 μM glutamate; for EC50: read-out: NMDAR2B B: log EC50 (converted); for Emax: read-out: NMDAR2B A: % maximal [3H]MK-801 binding relative to 1 mM glycine
T4 construct: expressed in transfected cells; host or cells: HEK cells (membrane extract)
Description: as §1, §2, §3, §4

[7] = tested on: positive (hedonic) 50-kHz ultrasonic vocalizations (USVs); test: Positive emotional learning (PEL) test; assay type: in vivo, rats; settings: rat, PO, 1 h after administration
Description: Experiments were conducted as described in Burgdorf et al., “The effect of selective breeding for differential rates of 50-kHz ultrasonic vocalizations on emotional behavior in rats,” Devel. Psychobiol., 51:34-46 (2009). Rat 50-kHz ultrasonic vocalization (hedonic USVs) is a validated model for the study of positive affective state and is best elicited by rough-and-tumble play.
The PEL assay measures the acquisition of positive (hedonic) 50-kHz ultrasonic vocalizations (USVs) to a social stimulus, heterospecific rough and tumble play stimulation. Heterospecific rough-and-tumble play stimulation was administered by the experimenter's right hand. One hour after administration of test compound or vehicle negative control (0.5% sodium carboxymethyl cellulose in 0.9% sterile saline vehicle), animals received 3 min of heterospecific rough-and-tumble play that consisted of alternating 15 sec blocks of heterospecific play and 15 sec of no-stimulation. High frequency ultrasonic vocalizations (USVs) were recorded and analyzed by sonogram with Avasoft SASlab Pro (Germany) as previously described by Burgdorf et al., “Positive emotional learning is regulated in the medial prefrontal cortex by GluN2B-containing NMDA receptors,” Neuroscience, 192:515-523 (2011). Frequency modulated 50-kHz US V s that occurred during each of the no-stimulation periods were quantified to measure PEL. Animals were not habituated to play stimulation before testing. Positive emotional learning was measured during the conditioned stimulus (CS) trials preceding the tickle unconditioned stimulus (UCS) trials. Animals received 15 second trials consisting of 6 CS and 6 UCS trials each (3 min total).
The table below summarizes the findings. As each experiment includes its own vehicle group, an example (typical) vehicle score is shown. Max effect (mean number of 50 kHz USVs per 15 seconds) is reported as ∧: <6.0; *: 6.0-7.6; **: 7.7-10; ***: 10.1-20.

[8] = biological target: T5, NMDAR2D (Homo sapiens, UniProt O15399+Q05586); test: [3H]MK-801 binding, NMDAR2D expressing HEK cell membranes; assay type: biochemical; settings: 50 μM glutamate, read-out: NMDAR2D B: log EC50 (converted)
T5 construct: expressed in transfected cells; host or cells: HEK cells (membrane extract)
Description: as §1, §2, §3, §4

[9] = normal saline (compounds marked * in 1% NMP and 99% normal saline)
[10] = plasma, normal saline (compounds marked * in 1% NMP and 99% normal saline)
[11] = Sprague Dawley, in vivo, iv, read-out: C0
[12] = Sprague Dawley, plasma, po, Tmax, normal saline (compounds marked * in 1% NMP and 99% normal saline)

T4 sequence (Q13224 27-1484, species assumed, other chains not shown): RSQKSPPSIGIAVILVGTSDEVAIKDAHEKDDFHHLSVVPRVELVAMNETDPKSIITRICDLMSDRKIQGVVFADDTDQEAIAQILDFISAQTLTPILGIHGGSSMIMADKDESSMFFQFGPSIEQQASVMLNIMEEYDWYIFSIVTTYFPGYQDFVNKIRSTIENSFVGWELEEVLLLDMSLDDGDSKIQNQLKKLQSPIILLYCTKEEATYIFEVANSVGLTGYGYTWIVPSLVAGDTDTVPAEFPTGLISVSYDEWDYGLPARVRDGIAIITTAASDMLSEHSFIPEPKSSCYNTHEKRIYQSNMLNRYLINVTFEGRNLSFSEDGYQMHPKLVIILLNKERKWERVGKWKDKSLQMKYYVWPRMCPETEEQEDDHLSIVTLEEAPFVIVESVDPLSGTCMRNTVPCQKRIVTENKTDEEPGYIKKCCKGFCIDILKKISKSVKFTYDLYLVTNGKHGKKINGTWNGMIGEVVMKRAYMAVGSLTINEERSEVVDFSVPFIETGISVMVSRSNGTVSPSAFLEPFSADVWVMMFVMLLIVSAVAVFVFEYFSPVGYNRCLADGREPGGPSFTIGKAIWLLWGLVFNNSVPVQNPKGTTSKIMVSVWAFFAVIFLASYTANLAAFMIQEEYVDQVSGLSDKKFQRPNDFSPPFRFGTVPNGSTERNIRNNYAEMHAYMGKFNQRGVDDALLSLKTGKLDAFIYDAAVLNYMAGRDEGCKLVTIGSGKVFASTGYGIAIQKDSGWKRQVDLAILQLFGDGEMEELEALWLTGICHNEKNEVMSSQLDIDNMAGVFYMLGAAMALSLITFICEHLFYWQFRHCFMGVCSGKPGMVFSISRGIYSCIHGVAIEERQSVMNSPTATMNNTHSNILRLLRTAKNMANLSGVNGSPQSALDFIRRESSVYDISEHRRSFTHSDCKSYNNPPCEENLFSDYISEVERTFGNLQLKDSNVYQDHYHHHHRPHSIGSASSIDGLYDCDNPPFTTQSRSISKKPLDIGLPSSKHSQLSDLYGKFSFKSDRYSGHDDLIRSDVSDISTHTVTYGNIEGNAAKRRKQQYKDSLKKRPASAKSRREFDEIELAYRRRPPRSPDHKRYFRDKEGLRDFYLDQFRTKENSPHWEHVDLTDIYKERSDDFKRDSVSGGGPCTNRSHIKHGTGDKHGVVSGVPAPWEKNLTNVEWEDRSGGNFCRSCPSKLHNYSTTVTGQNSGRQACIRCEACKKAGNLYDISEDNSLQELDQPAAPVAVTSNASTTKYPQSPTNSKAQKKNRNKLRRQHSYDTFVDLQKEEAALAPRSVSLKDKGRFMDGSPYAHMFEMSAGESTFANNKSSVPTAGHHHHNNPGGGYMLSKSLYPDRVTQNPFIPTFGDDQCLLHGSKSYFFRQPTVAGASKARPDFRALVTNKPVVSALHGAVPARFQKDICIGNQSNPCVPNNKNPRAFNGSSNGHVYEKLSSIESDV
T2 sequence (Q12879 23-1464, species assumed, other chains not shown): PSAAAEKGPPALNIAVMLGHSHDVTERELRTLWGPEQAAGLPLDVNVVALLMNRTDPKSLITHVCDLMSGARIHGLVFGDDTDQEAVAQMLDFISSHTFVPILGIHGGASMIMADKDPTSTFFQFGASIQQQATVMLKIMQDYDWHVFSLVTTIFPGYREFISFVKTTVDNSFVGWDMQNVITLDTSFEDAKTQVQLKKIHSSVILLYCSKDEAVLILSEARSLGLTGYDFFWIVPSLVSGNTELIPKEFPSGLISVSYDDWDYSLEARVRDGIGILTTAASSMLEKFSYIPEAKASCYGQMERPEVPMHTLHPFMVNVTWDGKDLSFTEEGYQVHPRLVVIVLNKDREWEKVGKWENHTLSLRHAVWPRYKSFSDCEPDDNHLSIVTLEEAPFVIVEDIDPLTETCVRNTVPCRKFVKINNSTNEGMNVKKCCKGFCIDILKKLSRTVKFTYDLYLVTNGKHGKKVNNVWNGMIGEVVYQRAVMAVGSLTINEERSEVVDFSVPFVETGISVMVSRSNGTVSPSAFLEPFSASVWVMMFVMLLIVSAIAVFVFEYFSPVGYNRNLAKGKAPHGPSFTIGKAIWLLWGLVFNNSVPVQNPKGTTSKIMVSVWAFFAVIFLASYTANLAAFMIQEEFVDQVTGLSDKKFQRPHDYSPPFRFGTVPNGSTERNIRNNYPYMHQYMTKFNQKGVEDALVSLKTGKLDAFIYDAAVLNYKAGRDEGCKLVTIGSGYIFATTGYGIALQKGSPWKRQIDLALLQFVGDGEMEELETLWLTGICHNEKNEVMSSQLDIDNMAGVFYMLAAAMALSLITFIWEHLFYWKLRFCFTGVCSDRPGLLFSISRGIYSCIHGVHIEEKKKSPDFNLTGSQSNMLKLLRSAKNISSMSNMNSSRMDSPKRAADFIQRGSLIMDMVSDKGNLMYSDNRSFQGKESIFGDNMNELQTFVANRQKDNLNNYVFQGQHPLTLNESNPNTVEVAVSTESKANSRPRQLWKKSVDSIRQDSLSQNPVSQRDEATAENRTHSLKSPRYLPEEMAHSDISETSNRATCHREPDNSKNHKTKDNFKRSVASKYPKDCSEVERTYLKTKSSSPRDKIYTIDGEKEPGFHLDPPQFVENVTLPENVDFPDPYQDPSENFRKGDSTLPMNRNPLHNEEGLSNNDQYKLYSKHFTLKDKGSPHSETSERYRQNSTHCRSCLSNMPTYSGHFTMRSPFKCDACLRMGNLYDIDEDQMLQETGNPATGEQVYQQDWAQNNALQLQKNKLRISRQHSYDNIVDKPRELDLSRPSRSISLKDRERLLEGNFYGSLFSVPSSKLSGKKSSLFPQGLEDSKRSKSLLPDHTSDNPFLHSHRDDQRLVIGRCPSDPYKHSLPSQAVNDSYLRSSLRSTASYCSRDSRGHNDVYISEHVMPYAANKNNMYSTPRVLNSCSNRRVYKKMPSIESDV
T3 sequence (Q14957 20-1233, species assumed, other chains not shown): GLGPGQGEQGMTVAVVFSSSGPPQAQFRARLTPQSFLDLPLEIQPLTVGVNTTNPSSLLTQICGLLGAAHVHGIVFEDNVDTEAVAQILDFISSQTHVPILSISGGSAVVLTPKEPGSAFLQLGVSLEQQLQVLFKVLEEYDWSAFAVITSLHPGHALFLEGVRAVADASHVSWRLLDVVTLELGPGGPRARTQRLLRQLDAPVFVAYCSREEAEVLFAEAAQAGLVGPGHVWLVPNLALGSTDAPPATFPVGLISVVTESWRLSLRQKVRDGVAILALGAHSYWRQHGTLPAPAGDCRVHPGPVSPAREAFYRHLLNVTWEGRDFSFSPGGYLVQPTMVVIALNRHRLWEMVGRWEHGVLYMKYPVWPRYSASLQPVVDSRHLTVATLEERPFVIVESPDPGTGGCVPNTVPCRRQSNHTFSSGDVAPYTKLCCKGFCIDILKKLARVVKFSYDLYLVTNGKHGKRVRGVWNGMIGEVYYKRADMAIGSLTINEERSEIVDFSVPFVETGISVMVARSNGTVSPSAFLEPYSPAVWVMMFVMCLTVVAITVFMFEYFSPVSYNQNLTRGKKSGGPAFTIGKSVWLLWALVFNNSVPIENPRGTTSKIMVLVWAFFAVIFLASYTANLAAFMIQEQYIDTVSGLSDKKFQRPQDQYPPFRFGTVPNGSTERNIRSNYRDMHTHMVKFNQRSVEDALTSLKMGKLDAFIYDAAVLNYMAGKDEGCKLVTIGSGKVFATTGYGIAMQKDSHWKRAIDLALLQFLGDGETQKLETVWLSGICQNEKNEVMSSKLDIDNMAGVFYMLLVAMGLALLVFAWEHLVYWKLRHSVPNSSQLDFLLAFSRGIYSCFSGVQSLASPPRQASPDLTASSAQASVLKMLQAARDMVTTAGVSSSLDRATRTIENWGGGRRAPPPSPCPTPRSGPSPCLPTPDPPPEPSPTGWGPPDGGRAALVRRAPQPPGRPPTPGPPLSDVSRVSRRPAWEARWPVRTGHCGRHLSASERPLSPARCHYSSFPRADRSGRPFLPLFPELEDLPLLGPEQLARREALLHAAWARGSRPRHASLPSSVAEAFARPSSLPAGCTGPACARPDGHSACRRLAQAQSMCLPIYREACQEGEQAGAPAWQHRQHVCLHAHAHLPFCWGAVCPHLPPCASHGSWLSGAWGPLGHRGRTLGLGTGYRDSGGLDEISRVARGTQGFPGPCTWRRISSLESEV

| Structure (SMILES) | NMDAR2D A: % maximal [3H]MK-801 binding relative to 1 mM glycine [1] | NMDAR2A A: % maximal [3H]MK-801 binding relative to 1 mM glycine [2] | CSF Cmax [4] | Cmax [4, 10] | NMDAR2C A: % maximal [3H]MK-801 binding relative to 1 mM glycine [5] | EC50 [5] | NMDAR2B A: % maximal [3H]MK-801 binding relative to 1 mM glycine [6] | EC50 [6] | Emax [2] | EC50 [2] | Max Effect (mean number of 50 kHz USVs per 15 seconds) ([7]; dose .1 mg/kg) | Emax [6] | other results |
| --- | --- | --- | --- | --- | --- | --- | --- | --- | --- | --- | --- | --- | --- |
| O=C1NCC12CNCCN2Cc1ccccc1 (single isomer, unassigned) [ED-2, 5-Benzyl-2,5,8-Triazaspiro[3.5]Nonan-1-One] | + (<100%=+) | − (−=0) | 178.3 ng/mL | 1563.1 ng/mL | + (<100%=+) | < 1 nM | + (<100%=+) | < 1 nM | – | – | – | – | EC50 [1]: < 1 nM; AUClast [3]: 806.5 ng·h/mL; C0 [3]: 1793.2 ng/mL; Cl [3]: 40.6 mL/min/kg; T1/2 [3]: 32.4 min; Vss [3]: 1.45 L/kg; % F [4]: 54%; Brain Cmax [4]: 478.5 ng/mL; AUClast [4, 9]: 2178.53 ng·h/mL; Tmax [4, 9]: 15 min; Max Effect (mean number of 50 kHz USVs per 15 seconds) ([7]; dose .001-1 mg/kg): *** (***: 10.1-20) |
| CC(C)(C)OC(=O)N1CCN(C(=O)OC(C)(C)C)C2(CNC2=O)C1 (single isomer, unassigned) [EE-2, Di-Tert-Butyl 1-Oxo-2,5,8-Triazaspiro[3.5]Nonane-5,8-Dicarboxylate] | − (−=0) | − (−=0) | – | – | + (<100%=+) | < 1 nM | + (<100%=+) | < 1 nM | – | – | – | – | – |
| CN1CCN(Cc2ccccc2)C2(CNC2=O)C1 (single isomer, unassigned) [EG-2, 5-Benzyl-8-Methyl-2,5,8-Triazaspiro[3.5]Nonan-1-One] | + (<100%=+) | − (−=0) | – | 3526.63 ng/mL | + (<100%=+) | < 1 nM | − (−=0) | – | – | – | – | – | EC50 [8]: < 1 nM; AUC(0-t) ([3]; Sprague Dawley, in vivo, iv): 400 ng·h/mL; clearance ([3]; Sprague Dawley, in vivo, iv): 83.3 mL/min/kg; half-life ([3]; Sprague Dawley, in vivo, iv): 28.8 min; C0 [3, 11]: 1100 ng/mL; Vd ([3]; Sprague Dawley, in vivo, iv): 1.87 L/kg; Tmax [4, 12]: 15 min; % F [4]: 100%; AUClast [4, 9]: 3082.39 ng·h/mL |
| C[C@@H](O)[C@H](N)C(=O)N1CCNC2(CNC2=O)C1 (single isomer, unassigned) [EK-2, 8-(L-Threonyl)-2,5,8-Triazaspiro[3.5]Nonan-1-One] | – | – | 81.6 ng/mL | 1910.5 ng/mL | – | – | + (<100%=+) | < 1 nM | < 100% | > 1 nM | * (*: 6.0-7.6) | – | Tmax [4, 9]: 60 min |
| C[C@@H](O)[C@H](N)C(=O)N1CCN(Cc2ccccc2)C2(CNC2=O)C1 (single isomer, unassigned) [EL-1, 8-(L-Threonyl)-5-Benzyl-2,5,8-Triazaspiro[3.5]Nonan-1-One] | – | – | 56.9 ng/mL | – | – | – | – | < 1 nM | 0% | – | *** (***: 10.1-20) | < 100% | AUC(0-t) ([3]; Sprague Dawley, in vivo, iv): 4320 ng·h/mL; clearance ([3]; Sprague Dawley, in vivo, iv): 7.35 mL/min/kg; half-life ([3]; Sprague Dawley, in vivo, iv): 406 min; C0 [3, 11]: 3250 ng/mL; Vd ([3]; Sprague Dawley, in vivo, iv): 2.12 L/kg; bioavailability ([4]; Sprague Dawley, plasma, po, % F): 90%; AUC(0-t) ([4]; Sprague Dawley, plasma, po, AUClast, normal saline (compounds marked * in 1% NMP and 99% normal saline)): 19400 ng·h/mL; Cmax ([4]; Sprague Dawley, plasma, po, Cmax, normal saline (compounds marked * in 1% NMP and 99% normal saline)): 4980 ng/mL; Tmax [4, 12]: 30 min; Brain Cmax [4]: 143 ng/mL |
| C[C@@H](O)[C@H](N)C(=O)N1CCN(C(=O)OC(C)(C)C)CC12CNC2=O (stereo partly drawn) [EC-2, Tert-Butyl 5-(L-Threonyl)-1-Oxo-2,5,8-Triazaspiro[3.5]Nonane-8-Carboxylate] | – | – | – | – | – | – | – | < 1 nM | < 100% | > 1 nM | ** (**: 7.7-10) | > 100% | – |
| CN1CCNC2(CNC2=O)C1 (stereo not drawn) [EH-1, 8-Methyl-2,5,8-Triazaspiro[3.5]Nonan-1-One] | + (<100%=+) | – | – | – | − (−=0) | – | – | < 1 nM | < 100% | < 1 nM | – | < 100% | EC50 [8]: < 1 nM |
| CN1CCNC2(CNC2=O)C1 (stereo not drawn) [EH-2, 8-Methyl-2,5,8-Triazaspiro[3.5]Nonan-1-One] | − (−=0) | + (<100%=+) | – | – | − (−=0) | – | + (<100%=+) | < 1 nM | – | < 1 nM | – | – | – |
| CN1CCN(C(=O)OC(C)(C)C)CC12CN(CC(N)=O)C2=O (stereo not drawn) [ER-118] | ++ (>100%=++) | − (−=0) | – | – | − (−=0) | – | + (<100%=+) | < 1 nM | – | – | – | – | EC50 [1]: < 1 nM |
